Data as given in patent US20150196033A1, “PESTICIDAL COMPOSITIONS AND PROCESSES RELATED THERETO” (priority 2012, published 2015).

Legend:
Format in all cases: in vivo
[1] = test system: Beet Armyworm (BAW) (Spodoptera exigua); assay: Bioassay on Beet Armyworm (BAW), 128-well diet tray assay; conditions: second instar larvae, five to seven days; for mortality at 50 µg/cm2: read-out: Rating BAW (% Control (or Mortality))
Description: (§1) Certain molecules disclosed in this document were tested against BAW and CEW using procedures described in the following examples. In the reporting of the results, the “BAW & CEW Rating Table” was used (See Table Section).
Bioassays on BAW (Spodoptera exigua)
(§2) Trays were covered with a clear self-adhesive cover and held at 25° C., 14:10 light-dark for five to seven days. Percent mortality was recorded for the larvae in each well; activity in the eight wells was then averaged. The results are indicated in the table entitled “Table ABC: Biological Results” (See Table Section).

[2] = test system: Corn Earworm (CEW) (Helicoverpa zea); assay: Bioassay on Corn Earworm (CEW), 128-well diet tray assay; conditions: second instar larvae, five to seven days; for mortality at 50 µg/cm2: read-out: Rating CEW (% Control (or Mortality)); for mortality at 0.5 µg/cm2: 0.5 μg/cm2 on artificial diet, read-out: Rating CEW (% Control (or Mortality)), *Tested at 0.5 μg/cm2
Description: as §1
Bioassays on CEW (Helicoverpa zea)
as §2

[3] = test system: Green Peach Aphid (GPA) (Myzus persicae); assay: Bioassay on Green Peach Aphid (GPA), foliar spray on cabbage seedlings; conditions: 200 ppm foliar spray on cabbage seedlings, graded after three days, Abbott corrected % control; for mortality at 200 ppm: Myzus persicae, 72 h, read-out: Rating GPA (% Control (or Mortality))
Description: Certain molecules disclosed in this document were tested against GPA using procedures described in the following example. In the reporting of the results, the “GPA Rating Table” was used (See Table Section).
Cabbage seedlings grown in 3-inch pots, with 2-3 small (3-5 cm) true leaves, were used as test substrate. The seedlings were infested with 20-50 GPA (wingless adult and nymph stages) one day prior to chemical application. Four pots with individual seedlings were used for each treatment. Test compounds (2 mg) were dissolved in 2 mL of acetone/MeOH (1:1) solvent, forming stock solutions of 1000 ppm test compound. The stock solutions were diluted 5× with 0.025% Tween 20 in H2O to obtain the solution at 200 ppm test compound. A hand-held aspirator-type sprayer was used for spraying a solution to both sides of […] leaves until runoff. Reference plants (solvent check) were sprayed with the diluent only containing 20% by volume of acetone/MeOH (1:1) solvent. Treated plants were held in a holding room for three days at approximately 25° C. and ambient relative humidity (RH) prior to grading. Evaluation was conducted by counting the number of live aphids per plant under a microscope. Percent Control was measured by using Abbott's correction formula (W.S. Abbott, “A Method of Computing the Effectiveness of an Insecticide” J. Econ. Entomol. 18 (1925), pp. 265-267) as follows.
Corrected % Control=100*(X−Y)/X • where • X=No. of live aphids on solvent check plants and • Y=No. of live aphids on treated plants

[4] = Spodoptera exigua, 168 h, 50 μg/cm2 on artificial diet
[5] = Helicoverpa zea, 168 h, 50 μg/cm2 on artificial diet

Molecule: COc1ccc(N/C(=N/C(=O)Nc2ccc(-c3ncn(-c4ccc(C(F)(F)F)cc4)n3)cc2)SC)c(C)c1 [Molecule A2, (Z)-Methyl N-(4-methoxy-2-methylphenyl)-N′-((4-(1-(4-(trifluoromethyl)phenyl)-1H-1,2,4-triazol-3-yl)phenyl)carbamoyl)carbamimidothioate]
- mortality at 50 µg/cm2 [1, 4]: 50 to 100%
- mortality at 50 µg/cm2 [2, 5]: 50 to 100%
- mortality at 200 ppm [3]: 0%

Molecule: COc1ccc(N/C(O)=C/C(=O)Nc2ccc(-c3ncn(-c4ccc(OC(F)(F)F)cc4)n3)cc2)c(C)c1 [Molecule A33, (Z)-3-hydroxy-3-(4-methoxy-2-methylphenylamino)-N-(4-(1-(4-(trifluoromethoxy)phenyl)-1H-1,2,4-triazol-3-yl)phenyl)acrylamide]
- mortality at 50 µg/cm2 [1, 4]: 50 to 100%
- mortality at 50 µg/cm2 [2, 5]: 50 to 100%
- mortality at 200 ppm [3]: 0 to 80%

Molecule: Cc1cccc(C)c1N/C(S)=N/C(=O)Nc1ccc(-c2ncn(-c3ccc(OC(F)(F)F)cc3)n2)cc1 [Molecule A11]
- mortality at 50 µg/cm2 [1, 4]: 50 to 100%
- mortality at 50 µg/cm2 [2, 5]: 50 to 100%
- mortality at 200 ppm [3]: 0 to 80%

Molecule: Cc1cccc(C)c1N/C(S)=N/C(=O)Nc1ccc(-c2ncn(-c3ccc(C(F)(F)F)cc3)n2)cc1 [Molecule A12]
- mortality at 50 µg/cm2 [1, 4]: 50 to 100%
- mortality at 50 µg/cm2 [2, 5]: 50 to 100%
- mortality at 200 ppm [3]: 0%

Molecule: COc1cc(C)c(N/C(=N/C(=O)Nc2ccc(-c3ncn(-c4ccc(OC(F)(F)F)cc4)n3)cc2)SCOC(=O)C(C)C)c(C)c1 [Molecule A7, (E)-(N′-(2,6-Dimethyl-4-methoxyphenyl)-N-(4-(1-(4-(trifluoromethyoxy)phenyl)-1H-1,2,4-triazol-3-yl)phenylcarbamoyl)carbamimidoylthio)methyl isobutyrate]
- mortality at 50 µg/cm2 [1, 4]: 50 to 100%
- mortality at 50 µg/cm2 [2, 5]: 50 to 100%
- mortality at 200 ppm [3]: 0 to 80%

Molecule: CC(=O)/C(C(=O)Nc1ccc(-c2ncn(-c3ccc(OC(F)(F)F)cc3)n2)cc1)=C(/S)Nc1ccccc1C(C)C [Molecule A20, (E)-3-hydroxy-2-((2-isopropylphenyl)carbamothioyl)-N-(4-(1-(4-(trifluoromethoxy)phenyl)-1H-1,2,4-triazol-3-yl)phenyl)but-2-enamide]
- mortality at 50 µg/cm2 [1, 4]: 50 to 100%
- mortality at 50 µg/cm2 [2, 5]: 50 to 100%
- mortality at 200 ppm [3]: 0%

Molecule: Cc1ccccc1N/C(S)=C/C(=O)Nc1ccc(-c2ncn(-c3ccc(OC(F)(F)F)cc3)n2)cc1 [Molecule A22, 3-thioxo-3-(o-tolylamino)-N-(4-(1-(4-(trifluoromethoxy)phenyl)-1H-1,2,4-triazol-3-yl)phenyl)propanamide]
- mortality at 50 µg/cm2 [1, 4]: 50 to 100%
- mortality at 50 µg/cm2 [2, 5]: 50 to 100%
- mortality at 200 ppm [3]: 0%

Molecule: CC(C)C(=O)OCS/C(=N\C(=O)Nc1ccc(-c2ncn(-c3ccc(OC(F)(F)C(F)(F)F)cc3)n2)cc1)Nc1ccccc1C(C)C [Molecule A6, (Z)-((N-(2-Isopropylphenyl)-N′-((4-(1-(4-(pentafluoroethoxy)phenyl)-1H-1,2,4-triazol-3-yl)phenyl)carbamoyl)carbamimidoyl)thio)methyl isobutyrate]
- mortality at 50 µg/cm2 [1, 4]: 50 to 100%
- mortality at 50 µg/cm2 [2, 5]: 50 to 100%
- mortality at 200 ppm [3]: 0%

Molecule: COc1ccc(N/C(=N/C(=O)Nc2ccc(-c3ncn(-c4ccc(C(F)(F)F)cc4)n3)cc2)SCOC(=O)C(C)C)c(C)c1 [Molecule A1, (E)-((N′-(4-methoxy-2-methylphenyl)-N-((4-(1-(4-(trifluoromethyl)phenyl)-1H-1,2,4-triazol-3-yl)phenyl)carbamoyl)carbamimidoyl)thio) methyl isobutyrate]
- mortality at 50 µg/cm2 [1, 4]: 50 to 100%
- mortality at 50 µg/cm2 [2, 5]: 50 to 100%
- mortality at 200 ppm [3]: 0%

Molecule: Cc1cccc(C)c1N/C(O)=C/C(=O)Nc1ccc(-c2ncn(-c3ccc(OC(F)(F)F)cc3)n2)cc1 [Molecule A32, (Z)-3-(2,6-dimethylphenylamino)-3-hydroxy-I-(4-(1-(4-(trifluoromethoxy)phenyl)-1H-1,2,4-triazol-3-yl)phenyl)acrylamide]
- mortality at 50 µg/cm2 [1, 4]: 50 to 100%
- mortality at 50 µg/cm2 [2, 5]: 50 to 100%
- mortality at 200 ppm [3]: 0%

Molecule: (E)-((N′-(4-Methoxy-2,6-dimethylphenyl)-N-((4-(1-(4-(trifluoromethyl)phenyl)-1H-1,2,4-triazol-3-yl)phenyl)carbamoyl) carbamimidoyl)thio)methyl 2-(((benzyloxy)carbonyl)amino)acetate [Molecule A9]
- Rating BAW (% Control (or Mortality)) ([1]; 50 μg/cm2 on artificial diet): A (50-100)
- Rating CEW (% Control (or Mortality)) ([2]; 50 μg/cm2 on artificial diet): A (50-100)
- Rating GPA (% Control (or Mortality)) [3]: B (More than 0-Less than 80)

Molecule: Cc1cc(C)c(N2C(=O)CS/C2=N\C(=O)Nc2ccc(-c3ncn(-c4ccc(OC(F)(F)F)cc4)n3)cc2)c(C)c1 [Molecule A36]
- mortality at 50 µg/cm2 [1, 4]: 50 to 100%
- mortality at 50 µg/cm2 [2, 5]: 50 to 100%

Molecule: O=C(/N=C(\S)Nc1ccccc1Cc1ccccc1)Nc1ccc(-c2ncn(-c3ccc(OC(F)(F)F)cc3)n2)cc1 [Molecule A101]
- mortality at 50 µg/cm2 [1, 4]: 50 to 100%
- mortality at 0.5 µg/cm2 ([2]; Helicoverpa zea, 168 h): 50 to 100%

Molecule: Cc1cc(C)c(N/C(S)=N/C(=O)Nc2ccc(-c3ncn(-c4ccc(OC(F)(F)F)cc4)n3)cc2)c(C)c1 [Molecule A49]
- mortality at 50 µg/cm2 [1, 4]: 50 to 100%
- mortality at 50 µg/cm2 [2, 5]: 50 to 100%

Molecule: CCc1ccccc1N/C(=N\C(=O)Nc1ccc(-c2ncn(-c3ccc(OC(F)(F)F)cc3)n2)cc1)SCOC(=O)C(C)C [Molecule A57]
- mortality at 50 µg/cm2 [1, 4]: 50 to 100%
- mortality at 50 µg/cm2 [2, 5]: 50 to 100%

Molecule: CC(C)c1cccc(N2C(=O)CS/C2=N\C(=O)Nc2ccc(-c3ncn(-c4ccc(OC(F)(F)F)cc4)n3)cc2)c1 [Molecule A120]
- mortality at 50 µg/cm2 [1, 4]: 0%
- mortality at 50 µg/cm2 [2, 5]: 0%

Molecule: CCCc1ccccc1N/C(S)=N/C(=O)Nc1ccc(-c2ncn(-c3ccc(OC(F)(F)F)cc3)n2)cc1 [Molecule A64]
- mortality at 50 µg/cm2 [1, 4]: 50 to 100%
- mortality at 0.5 µg/cm2 ([2]; Helicoverpa zea, 168 h): 50 to 100%

Molecule: Cc1cccc(N2C(=O)CS/C2=N\C(=O)Nc2ccc(-c3ncn(-c4ccc(OC(F)(F)F)cc4)n3)cc2)c1C(C)C [Molecule A108]
- mortality at 50 µg/cm2 [1, 4]: 50 to 100%
- mortality at 0.5 µg/cm2 ([2]; Helicoverpa zea, 168 h): 50 to 100%

Molecule: Cc1cc(C)c(N2/C(=N/C(=O)Nc3ccc(-c4ncn(-c5ccc(OC(F)(F)F)cc5)n4)cc3)SCC2C)c(C)c1 (stereo not shown) [Molecule A40]
- mortality at 12.5 µg/cm2 ([1]; Spodoptera exigua, 168 h, 12.5 μg/cm2 on artificial diet, read-out: Rating BAW (% Control (or Mortality)), **Tested at 12.5 μg/cm2): 50 to 100%
- mortality at 12.5 µg/cm2 ([2]; Helicoverpa zea, 168 h, 12.5 μg/cm2 on artificial diet, read-out: Rating CEW (% Control (or Mortality)), **Tested at 12.5 μg/cm2): 50 to 100%

Molecule: N#C/C(C(=O)Nc1ccc(-c2ncn(-c3ccc(OC(F)(F)F)cc3)n2)cc1)=C(/S)Nc1ccccc1-c1ccccc1 [Molecule A27, (Z)-3-([1,1′-Biphenyl]-2-ylamino)-2-cyano-3-mercapto-N-(4-(1-(4-(trifluoromethoxy)phenyl)-1H-1,2,4-triazol-3-yl)phenyl)acrylamide]
- mortality at 50 µg/cm2 [1, 4]: 0%
- mortality at 50 µg/cm2 [2, 5]: 0 to 50%

Molecule: Cc1cc(C)c(N2C(=O)C(C)S/C2=N\C(=O)Nc2ccc(-c3ncn(-c4ccc(OC(F)(F)F)cc4)n3)cc2)c(C)c1 (stereo not shown) [Molecule A37]
- mortality at 50 µg/cm2 [1, 4]: 50 to 100%
- mortality at 50 µg/cm2 [2, 5]: 50 to 100%

Molecule: O=C(/N=C(\S)Nc1ccccc1C1CC1)Nc1ccc(-c2ncn(-c3ccc(OC(F)(F)F)cc3)n2)cc1 [Molecule A63]
- mortality at 50 µg/cm2 [1, 4]: 50 to 100%
- mortality at 0.5 µg/cm2 ([2]; Helicoverpa zea, 168 h): 50 to 100%
